Where two headings read alike, the source gives them in different places.

What all share (assay): biochemical
Holding throughout (set-up): KINOMEscan active site-directed competition binding assay (DiscoveRx), 456 kinases, per cent of control at 300 nM
Common to all, as to settings: read-out: Percent of Control (%)

For one assay, the target named is T1, YES (Homo sapiens, UniProt P07947).
T1 construct: gene YES1
A digest of the protocol:
(§1)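 Binding was measured with an active site-directed competition binding assay that quantifies compound–kinase interactions. Test compounds were screened at 300 nmol/L across a 456-kinase panel.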

In another assay the target is T2, NDR1 (Homo sapiens, UniProt Q15208).
T2 construct: gene STK38
A digest of the protocol:
as §1

The next assay has as its target CSK (Homo sapiens, UniProt P41240). Put shortly: as §1
For a further assay, the target named is PRKCI (Homo sapiens, UniProt P41743). Put shortly:
as §1

Assay [1] has as its target T3, JAK3(JH1domain-catalytic) (Homo sapiens, UniProt P52333).
T3 construct: JH1domain-catalytic
Put shortly: as §1

Assay [2] deals with T4, JAK2(JH1domain-catalytic) (Homo sapiens, UniProt O60674).
T4 construct: JH1domain-catalytic
A digest of the protocol:
as §1

Another assay deals with T5, ERK1 (Homo sapiens, UniProt P27361).
T5 construct: gene MAPK3
Put shortly:
as §1

A further assay deals with T6, SIK (Homo sapiens, UniProt P57059).
T6 construct: gene SIK1
A digest of the protocol: as §1

A further assay addresses SNRK (Homo sapiens, UniProt Q9NRH2). Put shortly:
as §1

Another assay deals with PRKCD (Homo sapiens, UniProt Q05655). Put shortly: as §1
Another assay concerns the target DYRK1B (Homo sapiens, UniProt Q9Y463). Put shortly:
as §1

The target of the next assay is T7, TRKC (Homo sapiens, UniProt Q16288).
T7 construct: gene NTRK3
A digest of the protocol:
as §1

A further assay has as its target ACVRL1 (Homo sapiens, UniProt P37023). Put shortly: as §1
A further assay addresses FLT3-autoinhibited (Homo sapiens, UniProt P36888). Put shortly:
as §1

The target in another assay is T8, LOK (Homo sapiens, UniProt O94804).
T8 construct: gene STK10
A digest of the protocol:
as §1

For a further assay, the target named is BMX (Homo sapiens, UniProt P51813). A digest of the protocol:
as §1

The next assay deals with MYLK4 (Homo sapiens, UniProt Q86YV6). A digest of the protocol:
as §1

For another assay, the target named is BLK (Homo sapiens, UniProt P51451). Put shortly: as §1
The next assay deals with HIPK4 (Homo sapiens, UniProt Q8NE63). A digest of the protocol: as §1
In the next assay the target is T9, CTK (Homo sapiens, UniProt P42679).
T9 construct: gene MATK
A digest of the protocol:
as §1

The next assay concerns the target MAP3K1 (Homo sapiens, UniProt Q13233). Put shortly: as §1
The target in the next assay is CIT (Homo sapiens, UniProt O14578). Put shortly:
as §1

BLK, sequence (P51451 whole entry): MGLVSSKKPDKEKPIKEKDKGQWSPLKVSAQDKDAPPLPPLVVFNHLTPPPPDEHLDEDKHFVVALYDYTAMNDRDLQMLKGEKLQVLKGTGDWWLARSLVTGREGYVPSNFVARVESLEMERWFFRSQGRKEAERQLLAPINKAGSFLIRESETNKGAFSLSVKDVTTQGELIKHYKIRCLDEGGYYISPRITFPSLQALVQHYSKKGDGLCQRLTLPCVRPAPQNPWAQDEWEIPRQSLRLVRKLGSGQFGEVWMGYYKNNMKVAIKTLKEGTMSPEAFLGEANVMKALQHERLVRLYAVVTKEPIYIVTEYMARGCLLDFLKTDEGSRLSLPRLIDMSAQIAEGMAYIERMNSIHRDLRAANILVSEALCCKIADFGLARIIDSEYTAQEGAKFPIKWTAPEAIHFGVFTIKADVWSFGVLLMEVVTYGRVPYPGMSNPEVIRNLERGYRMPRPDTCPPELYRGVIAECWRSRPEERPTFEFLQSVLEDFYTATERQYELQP
T8 sequence (O94804 whole entry): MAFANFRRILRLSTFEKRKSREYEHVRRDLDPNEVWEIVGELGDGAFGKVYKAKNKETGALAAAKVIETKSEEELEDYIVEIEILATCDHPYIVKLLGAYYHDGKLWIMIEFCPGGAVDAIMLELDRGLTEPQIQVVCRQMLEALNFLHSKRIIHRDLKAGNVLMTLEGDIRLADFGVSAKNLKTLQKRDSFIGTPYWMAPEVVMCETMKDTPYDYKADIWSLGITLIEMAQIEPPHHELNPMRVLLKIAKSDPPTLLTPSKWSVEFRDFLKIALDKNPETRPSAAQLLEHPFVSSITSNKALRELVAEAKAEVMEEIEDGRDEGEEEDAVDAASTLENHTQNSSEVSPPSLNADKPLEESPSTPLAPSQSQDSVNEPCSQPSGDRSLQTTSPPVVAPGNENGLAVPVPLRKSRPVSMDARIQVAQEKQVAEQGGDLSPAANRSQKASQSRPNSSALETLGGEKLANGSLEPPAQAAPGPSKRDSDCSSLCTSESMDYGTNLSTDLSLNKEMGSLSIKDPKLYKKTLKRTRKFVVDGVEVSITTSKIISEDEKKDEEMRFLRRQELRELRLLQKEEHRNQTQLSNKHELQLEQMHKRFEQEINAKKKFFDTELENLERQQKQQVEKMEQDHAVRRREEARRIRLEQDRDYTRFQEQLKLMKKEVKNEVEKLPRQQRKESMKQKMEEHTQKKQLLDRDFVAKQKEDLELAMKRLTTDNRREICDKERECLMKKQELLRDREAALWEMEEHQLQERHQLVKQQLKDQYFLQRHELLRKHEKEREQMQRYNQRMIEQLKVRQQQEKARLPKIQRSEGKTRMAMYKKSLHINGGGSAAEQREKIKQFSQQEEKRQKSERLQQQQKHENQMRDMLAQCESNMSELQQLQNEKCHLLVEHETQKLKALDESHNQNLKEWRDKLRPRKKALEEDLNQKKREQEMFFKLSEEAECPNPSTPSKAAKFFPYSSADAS
MAP3K1, sequence (Q13233 whole entry): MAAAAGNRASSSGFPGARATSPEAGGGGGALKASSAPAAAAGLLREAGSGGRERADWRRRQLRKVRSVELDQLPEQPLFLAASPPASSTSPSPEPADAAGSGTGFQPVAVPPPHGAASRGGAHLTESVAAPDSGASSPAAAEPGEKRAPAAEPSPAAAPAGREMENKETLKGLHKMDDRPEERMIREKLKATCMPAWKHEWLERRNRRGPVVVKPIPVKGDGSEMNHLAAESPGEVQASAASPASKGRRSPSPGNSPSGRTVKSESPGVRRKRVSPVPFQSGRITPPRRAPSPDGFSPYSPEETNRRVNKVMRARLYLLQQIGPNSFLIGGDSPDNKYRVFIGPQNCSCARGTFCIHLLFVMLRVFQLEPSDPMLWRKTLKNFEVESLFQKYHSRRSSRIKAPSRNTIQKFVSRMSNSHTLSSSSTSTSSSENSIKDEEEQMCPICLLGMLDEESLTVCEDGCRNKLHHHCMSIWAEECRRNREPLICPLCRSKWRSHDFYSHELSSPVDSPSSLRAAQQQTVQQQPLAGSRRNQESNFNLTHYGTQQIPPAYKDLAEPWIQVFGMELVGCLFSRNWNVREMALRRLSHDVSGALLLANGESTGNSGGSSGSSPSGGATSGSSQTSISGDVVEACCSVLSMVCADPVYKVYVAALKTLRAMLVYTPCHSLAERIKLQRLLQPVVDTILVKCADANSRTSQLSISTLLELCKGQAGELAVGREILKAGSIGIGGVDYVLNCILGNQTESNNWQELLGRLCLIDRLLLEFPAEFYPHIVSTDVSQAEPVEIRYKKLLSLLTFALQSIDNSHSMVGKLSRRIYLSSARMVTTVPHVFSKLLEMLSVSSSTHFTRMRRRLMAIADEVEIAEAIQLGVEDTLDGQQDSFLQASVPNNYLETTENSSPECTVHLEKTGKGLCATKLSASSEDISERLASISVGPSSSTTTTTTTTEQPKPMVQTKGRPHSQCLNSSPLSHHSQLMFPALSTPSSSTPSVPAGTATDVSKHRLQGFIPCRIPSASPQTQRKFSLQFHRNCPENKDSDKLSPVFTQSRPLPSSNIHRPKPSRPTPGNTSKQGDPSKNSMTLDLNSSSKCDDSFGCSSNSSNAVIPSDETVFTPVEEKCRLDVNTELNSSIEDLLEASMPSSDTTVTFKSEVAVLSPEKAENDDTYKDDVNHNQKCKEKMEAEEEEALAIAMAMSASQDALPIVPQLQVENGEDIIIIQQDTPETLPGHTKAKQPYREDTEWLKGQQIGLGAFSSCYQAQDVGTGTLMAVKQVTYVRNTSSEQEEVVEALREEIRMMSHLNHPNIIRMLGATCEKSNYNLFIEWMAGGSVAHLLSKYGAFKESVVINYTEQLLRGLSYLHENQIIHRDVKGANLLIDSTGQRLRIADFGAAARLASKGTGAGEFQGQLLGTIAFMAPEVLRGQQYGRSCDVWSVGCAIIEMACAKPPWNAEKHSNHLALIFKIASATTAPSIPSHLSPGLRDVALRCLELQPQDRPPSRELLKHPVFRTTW
T4 sequence (O60674 whole entry): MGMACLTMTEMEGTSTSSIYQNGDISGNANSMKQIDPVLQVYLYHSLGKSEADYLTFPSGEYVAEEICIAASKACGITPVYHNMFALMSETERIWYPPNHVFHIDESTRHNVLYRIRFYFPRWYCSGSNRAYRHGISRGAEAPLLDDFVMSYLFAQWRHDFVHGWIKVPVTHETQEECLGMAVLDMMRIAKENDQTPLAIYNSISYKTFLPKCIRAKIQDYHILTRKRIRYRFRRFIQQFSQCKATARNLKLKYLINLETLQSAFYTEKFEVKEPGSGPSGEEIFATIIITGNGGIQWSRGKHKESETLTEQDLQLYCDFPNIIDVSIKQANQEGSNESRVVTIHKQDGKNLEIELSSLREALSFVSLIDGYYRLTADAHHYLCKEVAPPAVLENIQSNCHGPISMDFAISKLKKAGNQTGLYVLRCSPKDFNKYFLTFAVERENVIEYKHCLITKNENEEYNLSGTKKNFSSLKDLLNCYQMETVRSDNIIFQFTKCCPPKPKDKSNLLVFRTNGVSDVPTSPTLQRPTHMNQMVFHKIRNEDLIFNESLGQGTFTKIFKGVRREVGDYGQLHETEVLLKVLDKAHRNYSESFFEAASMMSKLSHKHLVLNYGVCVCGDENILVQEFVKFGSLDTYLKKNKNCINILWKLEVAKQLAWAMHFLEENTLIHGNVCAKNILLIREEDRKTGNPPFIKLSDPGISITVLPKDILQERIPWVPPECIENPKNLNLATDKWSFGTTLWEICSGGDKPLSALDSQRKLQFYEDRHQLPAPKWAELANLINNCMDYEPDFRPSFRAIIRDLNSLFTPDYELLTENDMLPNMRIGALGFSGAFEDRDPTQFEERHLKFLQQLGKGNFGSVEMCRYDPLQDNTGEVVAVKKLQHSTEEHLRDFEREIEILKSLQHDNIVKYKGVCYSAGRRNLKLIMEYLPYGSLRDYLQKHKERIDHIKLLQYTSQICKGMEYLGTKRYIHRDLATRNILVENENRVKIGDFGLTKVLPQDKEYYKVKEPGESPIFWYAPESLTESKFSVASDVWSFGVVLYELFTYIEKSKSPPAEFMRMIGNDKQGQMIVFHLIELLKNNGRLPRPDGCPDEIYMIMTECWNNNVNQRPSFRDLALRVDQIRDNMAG
DYRK1B, sequence (Q9Y463 whole entry): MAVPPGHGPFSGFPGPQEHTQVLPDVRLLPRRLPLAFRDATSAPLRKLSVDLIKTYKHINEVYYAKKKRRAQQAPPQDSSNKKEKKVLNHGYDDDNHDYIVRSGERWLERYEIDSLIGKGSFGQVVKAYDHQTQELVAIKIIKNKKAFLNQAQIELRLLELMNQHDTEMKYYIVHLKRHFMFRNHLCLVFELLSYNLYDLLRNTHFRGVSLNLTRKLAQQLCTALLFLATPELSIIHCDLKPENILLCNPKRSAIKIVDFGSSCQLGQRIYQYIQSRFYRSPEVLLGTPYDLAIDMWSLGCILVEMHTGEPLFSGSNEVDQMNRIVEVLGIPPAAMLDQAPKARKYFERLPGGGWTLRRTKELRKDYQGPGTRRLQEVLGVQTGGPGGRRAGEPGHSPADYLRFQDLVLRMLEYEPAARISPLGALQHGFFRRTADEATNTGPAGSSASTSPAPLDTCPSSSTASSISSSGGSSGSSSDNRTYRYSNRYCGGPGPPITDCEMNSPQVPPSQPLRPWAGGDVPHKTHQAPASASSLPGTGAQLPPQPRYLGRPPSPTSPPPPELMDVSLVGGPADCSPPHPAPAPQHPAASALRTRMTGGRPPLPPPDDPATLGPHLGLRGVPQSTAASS

Consider `O=C(/C=C/c1cnccc1-c1ccc(F)cc1)Nc1ccc(CCc2nnco2)cc1` [T-418, (2E)-3-(4-(4-fluorophenyl)pyridin-3-yl)-N-(4-(2-(1,3,4-oxadiazol-2-yl)ethyl)phenyl)acrylamide], for which the remaining binding at 0.3 µM at YES (sheet T-418) was determined as 100%; at NDR1 (sheet T-418) it was 46%; at CSK (sheet T-418), 86%; at PRKCI (sheet T-418), 70%; in [1] (sheet T-418) it was 68%; in assay [2] (sheet T-418), 100%. For the same molecule, the remaining binding at 0.3 µM stood at 94% at ERK1 (sheet T-418); 87% at SIK (sheet T-418); 73% at SNRK (sheet T-418); 100% on PRKCD (sheet T-418); 67% on DYRK1B (sheet T-418); 82% on TRKC (sheet T-418). Moreover, the remaining binding at 0.3 µM turned out to be 77% on ACVRL1 (sheet T-418); 89% at FLT3-autoinhibited (sheet T-418); 93% at LOK (sheet T-418); 100% on BMX (sheet T-418); 80% at MYLK4 (sheet T-418); 100% on BLK (sheet T-418). For the same molecule, the remaining binding at 0.3 µM at HIPK4 (sheet T-418) is 84%; on CTK (sheet T-418), 100%; at MAP3K1 (sheet T-418), 100%; on CIT (sheet T-418) it was 95%.
With `Cc1ncccc1Oc1sc(C(N)=O)c2c1-c1c(cnn1C)CC2` [T-474, 1-methyl-8-((2-methylpyridin-3-yl)oxy)-4,5-dihydro-1H-thieno[3,4-g]indazole-6-carboxamide], the remaining binding at 0.3 µM at YES amounted to 100%; at NDR1, 39%; on CSK, 86%; on PRKCI, 77%; in [1], 72%; in [2], 100%. The remaining binding at 0.3 µM came to 100% at ERK1; 100% at SIK; 71% at SNRK; 96% on PRKCD; 24% at DYRK1B; 87% on TRKC. In addition, the remaining binding at 0.3 µM at ACVRL1 was 87%; on FLT3-autoinhibited it was 78%; on LOK it was 100%; on BMX, 82%; at MYLK4 it was 90%; at BLK, 100%. For the same molecule, the remaining binding at 0.3 µM at HIPK4 worked out at 68%; at CTK, 100%; on MAP3K1, 84%; on CIT it was 93%.

The values are drawn from paper PMC5862592, “CDK8/19 inhibition induces premature G1/S transition and ATR-dependent cell death in prostate cancer cells” (Oncotarget, 2018).
